Active and inactive are the calls of the source. How the calls were made is not given here.
Assay: mitochondrial fusion inhibitors, confirmation, cell-based, chemical genetic, wild-type and mutant (AID 1361)
Conditions: Cell-based mitochondrial fusion phenotype, imaging
[1] = mutant cells, measured here: mutant cell line IC50

| SMILES | IC50 (WT cells) | IC50 [1] [µM] |
| --- | --- | --- |
| Cc1ccc(C(=O)NCc2ccc(N3CCN(C(=O)OC(C)(C)C)CC3)cc2)cc1 | > 25 µM (inactive) | > 25 |
| O=C(NC(Cc1c[nH]c2ccccc12)C(=O)Nc1ccc(OC(F)(F)F)cc1)c1cccs1 (stereo not given) | > 25 µM (inactive) | > 25 |
| O=C1Nc2ccc(Cl)cc2C12Nc1ccccc1-c1nnc(SCc3ccccc3F)nc1O2 (stereo not given) | > 25 µM (inactive) | > 25 |
| CCc1ccc(CCC(=O)Nc2ccccc2C(=O)O)o1 | > 25 µM (inactive) | > 25 |
| Nn1c(SCC(=O)Nc2ccc3c(c2)OCO3)nnc1-c1ccncc1 | > 25 µM (inactive) | > 25 |
| O=C(CCc1ccccc1)Nc1nnc(-c2ccc3c(c2)CCCC3)o1 | 8.76 µM | > 25 |
| Cc1ccc(NC(=S)N(CCCN2CCCC2)Cc2cccn2Cc2ccc(Cl)cc2)cc1C | 13.1 µM | > 25 |
| CC(=O)N(Cc1ccc(F)cc1)C1=C(NCCc2ccccc2)C(=O)c2ccccc2C1=O | 24 µM | > 25 |
| Cc1ccc(-c2cc(-c3ccccc3)c(C#N)c(N)n2)o1 | > 25 µM (inactive) | > 25 |
| COc1ccccc1N1CCN(C(=O)c2ccc(CSc3ccccc3)cc2)CC1 | 15.4 µM | > 25 |
| Cc1ccc(NNC(=O)C(O)(c2cccc(C(F)(F)F)c2)c2cccc(C(F)(F)F)c2)cc1 | 22.3 µM | > 25 |
| CCCCCCCOC(=O)c1nc(Cl)c(Cl)c(N)c1Cl | 18.9 µM | > 25 |
| O=C(c1ccco1)N1CCN(c2c(-c3ccccc3)c3cc(Cl)ccc3[nH]c2=O)CC1 | 13.2 µM | > 25 |
| Cc1ccc(-c2nc3cc(Br)cnc3nc2-c2ccc(C)cc2)cc1 | 9.24 µM | > 25 |
| COc1ccc(O[C@H]2C=C[C@@H](c3ccccc3)O[C@@H]2COC(=O)CC/C(C)=N/O[C@@H](C)CN2CCCCc3nc(C)c(C)cc32)cc1 | 12.1 µM | > 25 |
| Cc1nn(-c2ccccc2)c2sc(C(=O)N(Cc3ccco3)C(C)C(=O)NC(C)(C)C)cc12 (stereo not given) | 7.45 µM | 19.6 |
| Cc1cc(Nc2nc(Cl)c(Cl)cc2Cl)n(-c2ccccc2)n1 | 24.1 µM | > 25 |
| CCOP(=O)(OCC)c1nc(/C=C/c2ccccc2)oc1NCc1ccccc1 | > 25 µM (inactive) | > 25 |
| CCc1cc(-c2n[nH]c(=S)n2CC(C)C)cs1 | > 25 µM (inactive) | > 25 |
| Nc1c(C(=O)NC2CCCC2)sc2nc(-c3cccs3)ccc12 | > 25 µM (inactive) | > 25 |

| SMILES | IC50 (WT cells) | IC50 [1] [µM] |
| --- | --- | --- |
| c1ccc2c(-c3c[nH]c4ccccc34)c3ccccc3nc2c1 | 15.3 µM | > 25 |
| NC(=O)c1ccc(NC(=O)CCCN2C(=O)c3ccccc3C2=O)cc1 | > 25 µM (inactive) | > 25 |
| Cc1ccc(-c2ncccc2OC(=O)C23CC4CC(CC(C4)C2)C3)cc1 | 18.8 µM | > 25 |
| CCOC(=O)c1cnc(-c2ccccc2)nc1-c1ccccc1 | > 25 µM (inactive) | > 25 |
| COc1cc(OC)cc(C(=O)N2CCC(n3c(C)nc4cc(F)ccc43)CC2)c1 | > 25 µM (inactive) | > 25 |
| COc1cccc(C2CN(c3ccc(F)cc3F)N=C2c2cccs2)c1OC (stereo not given) | 10 µM | > 25 |
| Cc1nc(-c2cccc(NS(=O)(=O)c3cccc4ccccc34)c2)cs1 | 15.9 µM | > 25 |
| CC(C)CCNC(=O)CCCOc1cc(=O)n(C)c2ccccc12 | > 25 µM (inactive) | > 25 |
| Cn1c(Cc2ccccc2)nnc1SCC(=O)c1ccc(Br)s1 | > 25 µM (inactive) | > 12.5 |
| CCOC(=O)c1c(NC(=O)C2CCN(S(=O)(=O)c3cccs3)CC2)sc(C)c1C | > 25 µM (inactive) | > 25 |
| Brc1cnc(N2CCCCC2)nc1N1CCOCC1 | > 25 µM (inactive) | > 25 |
| CC1=C(C#N)C(NC(=O)c2ccc(C)cc2)(C(F)(F)F)C(=O)N1 (stereo not given) | > 25 µM (inactive) | > 25 |
| O=C1c2ccccc2C(=O)N1CCN1CCCCC1 | > 25 µM (inactive) | > 25 |
| O=[N+]([O-])c1ccc(/C=N/Nc2nc(N3CCCCCC3)nc(N3CCCCCC3)n2)o1 | 8.58 µM | > 25 |
| CCc1ccc(OCC2c3cc(OC)c(OC)cc3CCN2C(=S)NC)cc1 (stereo not given) | > 25 µM (inactive) | > 25 |
| COc1ccccc1CNC(=O)c1ccccc1OCc1ccc(F)cc1 | 21.8 µM | > 25 |
| COC(=O)C1CSc2[nH]c(=O)sc2C1c1ccc(OC)c(OC)c1 (stereo not given) | > 25 µM (inactive) | > 25 |
| CCOC(=O)C1=CN(c2cccc(F)c2)C=C(C(=O)OCC)C1c1cc(OC)c(O)c([N+](=O)[O-])c1 | 5.68 µM | > 25 |
| N/C(Cc1ccccc1)=N\OC(=O)c1cccc2ccccc12 | 14.8 µM (inactive) | 14.6 |
| Oc1ccc(/C=N/Nc2nc(N3CCCCCC3)nc(N3CCCCCC3)n2)c(O)c1 | 9.5 µM | > 25 |
